Inconclusive results and toxic doses are left out.
Tested on: L1210 leukemia ip in BDF1 mice, survival T/C
Assay: NCI In Vivo Anticancer Drug Screen. Data for tumor model L1210 Leukemia (intraperitoneal) in B6D2F1 (BDF1) mice
Details: endpoint: mean survival time, higher = longer survival
How it was run: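 Antitumor effect is assessed in tumor-bearing animals. Survival in the compound arm is compared with a vehicle-dosed control arm and expressed as their quotient.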

[1] = dose: 100.0 mg/kg/injection, schedule: Q01DX009 (ip), vehicle: saline with Tween-80
[2] = dose: 200.0 mg/kg/injection, schedule: Q01DX009 (ip), vehicle: saline with Tween-80
[3] = dose: 100.0 mg/kg/injection, schedule: Q01DX009 (ip), vehicle: saline
[4] = dose: 200.0 mg/kg/injection, schedule: Q01DX009 (ip), vehicle: saline
[5] = dose: 100.0 mg/kg/injection, schedule: Q01DX009 (ip), vehicle: Klucel (hydroxypropylcellulose) (HPC)
[6] = dose: 200.0 mg/kg/injection, schedule: Q01DX009 (ip), vehicle: Klucel (hydroxypropylcellulose) (HPC)
[7] = dose: 100.0 mg/kg/injection, schedule: Q04DX003 (ip), vehicle: Klucel (hydroxypropylcellulose) (HPC)
[8] = dose: 200.0 mg/kg/injection, schedule: Q04DX003 (ip), vehicle: Klucel (hydroxypropylcellulose) (HPC)
[9] = dose: 400.0 mg/kg/injection, schedule: Q04DX003 (ip), vehicle: Klucel (hydroxypropylcellulose) (HPC)
[10] = dose: 100.0 mg/kg/injection, schedule: Q01DX001 (ip), vehicle: saline
[11] = dose: 200.0 mg/kg/injection, schedule: Q01DX001 (ip), vehicle: saline
[12] = dose: 400.0 mg/kg/injection, schedule: Q01DX001 (ip), vehicle: saline

Structure (SMILES): CN=C(c1ccc(NC(=O)c2ccc(C(=O)Nc3ccc(C(=NC)N(C)C(C)=O)cc3)cc2)cc1)N(C)C(C)=O
- T/C (dose: 4.0 mg/kg/injection, schedule: Q01DX Z (ip), vehicle: carboxymethylcellulose (CMC)): 98 % of control
- T/C (dose: 6.0 mg/kg/injection, schedule: Q01DX Z (ip), vehicle: carboxymethylcellulose (CMC)): 104 % of control
- T/C (dose: 8.0 mg/kg/injection, schedule: Q01DX Z (ip), vehicle: carboxymethylcellulose (CMC)): 90 % of control
- T/C (dose: 10.0 mg/kg/injection, schedule: Q01DX Z (ip), vehicle: carboxymethylcellulose (CMC)): 101 % of control
- T/C (dose: 12.5 mg/kg/injection, schedule: Q01DX Z (ip), vehicle: carboxymethylcellulose (CMC)): 110 % of control
- T/C (dose: 50.0 mg/kg/injection, schedule: Q01DX Z (ip), vehicle: carboxymethylcellulose (CMC)): 87 % of control

Structure (SMILES): Cc1ccc2[nH]c(-c3ccccc3)c(-c3ccccc3)c2c1
- T/C [1]: 95 % of control
- T/C [2]: 103 % of control
- T/C (dose: 400.0 mg/kg/injection, schedule: Q01DX009 (ip), vehicle: saline with Tween-80): 95 % of control

Structure (SMILES): COC(=O)C(C)C1(O)CCCCC1 (configuration not stated)
- T/C [3]: 96 % of control
- T/C [4]: 93 % of control
- T/C (dose: 400.0 mg/kg/injection, schedule: Q01DX009 (ip), vehicle: saline): 91 % of control

Structure (SMILES): O=C(c1cccnc1)N1CCCC1
- T/C [5]: 113 % of control
- T/C [6]: 109 % of control
- T/C (dose: 400.0 mg/kg/injection, schedule: Q01DX009 (ip), vehicle: Klucel (hydroxypropylcellulose) (HPC)): 98 % of control

Structure (SMILES): Oc1cc(Cl)c(Cl)cc1Cl.[Cu+2]
- T/C (dose: 12.5 mg/kg/injection, schedule: Q04DX003 (ip), vehicle: gum acacia): 92 % of control
- T/C (dose: 25.0 mg/kg/injection, schedule: Q04DX003 (ip), vehicle: gum acacia): 93 % of control

Structure (SMILES): CCOc1ccccc1NC(c1ccc(OC)cc1)P(=O)(c1ccccc1)c1ccccc1 (configuration not stated)
- T/C [7]: 101 % of control
- T/C [8]: 101 % of control
- T/C [9]: 92 % of control

Structure (SMILES): Cc1ccccc1C1=CCCCCC1
- T/C (dose: 50.0 mg/kg/injection, schedule: Q01DX001 (ip), vehicle: saline): 93 % of control
- T/C [10]: 93 % of control
- T/C [11]: 98 % of control
- T/C [12]: 107 % of control

Structure (SMILES): CC1=CCC2(C)CCC(C(C)C)C2(O)CC1 (configuration not stated)
- T/C [3]: 91 % of control
- T/C [4]: 93 % of control

Structure (SMILES): CC1=CC2C(O)(CC(CO)=CC3C4C(C)(C)C4(O)C(O)C(C)C32O)C1=O (configuration not stated)
- T/C (dose: 50.0 mg/kg/injection, schedule: Q01DX001 (ip), vehicle: saline sonified): 112 % of control
- T/C (dose: 100.0 mg/kg/injection, schedule: Q01DX001 (ip), vehicle: saline sonified): 101 % of control
- T/C (dose: 200.0 mg/kg/injection, schedule: Q01DX001 (ip), vehicle: saline sonified): 91 % of control

Structure (SMILES): N/N=C\c1cnnc2ccccc12
- T/C [10]: 95 % of control
- T/C [11]: 95 % of control
- T/C [12]: 98 % of control

Structure (SMILES): C=C(CCCCC)C(=O)/C=C/c1ccc(Cl)cc1
- T/C (dose: 50.0 mg/kg/injection, schedule: Q01DX009 (ip), vehicle: Klucel (hydroxypropylcellulose) (HPC)): 103 % of control
- T/C [5]: 97 % of control
- T/C [7]: 102 % of control
- T/C [6]: 95 % of control
- T/C [8]: 100 % of control
- T/C [9]: 103 % of control

Structure (SMILES): CCOC(=O)CNC(=O)Nc1ccc(C(=O)O)cc1
- T/C [1]: 93 % of control
- T/C [2]: 100 % of control

Structure (SMILES): NC(N)=NCCS(=O)(=O)Nc1ccc(Nc2c3ccccc3nc3cc([N+](=O)[O-])ccc23)cc1
- T/C (dose: 0.75 mg/kg/injection, schedule: Q01DX009 (ip), vehicle: water): 121 % of control
- T/C (dose: 6.0 mg/kg/injection, schedule: Q01DX009 (ip), vehicle: water): 163 % of control
- T/C (dose: 25.0 mg/kg/injection, schedule: Q04DX003 (ip), vehicle: water): 157 % of control
- T/C (dose: 50.0 mg/kg/injection, schedule: Q04DX003 (ip), vehicle: water): 175 % of control

Structure (SMILES): FC(F)(F)c1ccc(C2=Nc3cccc4cccc(c34)N2)cc1
- T/C (dose: 15.0 mg/kg/injection, schedule: Q01DX Z (ip), vehicle: saline): 105 % of control
- T/C (dose: 30.0 mg/kg/injection, schedule: Q01DX Z (ip), vehicle: saline): 112 % of control
- T/C (dose: 60.0 mg/kg/injection, schedule: Q01DX Z (ip), vehicle: saline): 110 % of control
- T/C (dose: 120.0 mg/kg/injection, schedule: Q01DX Z (ip), vehicle: saline): 98 % of control
- T/C (dose: 120.0 mg/kg/injection, schedule: Q01DX Z (oral), vehicle: saline): 105 % of control
- T/C (dose: 240.0 mg/kg/injection, schedule: Q01DX Z (ip), vehicle: saline): 97 % of control
- T/C (dose: 240.0 mg/kg/injection, schedule: Q01DX Z (oral), vehicle: saline): 118 % of control
- T/C (dose: 480.0 mg/kg/injection, schedule: Q01DX Z (ip), vehicle: saline): 86 % of control
- T/C (dose: 480.0 mg/kg/injection, schedule: Q01DX Z (oral), vehicle: saline): 106 % of control
- T/C (dose: 960.0 mg/kg/injection, schedule: Q01DX Z (oral), vehicle: saline): 91 % of control

Structure (SMILES): CCCCCCOC(=O)C(C)OC(=O)OCCOCCOC(=O)OC(C)C(=O)OCCCCCC (configuration not stated)
- T/C [10]: 100 % of control
- T/C [11]: 96 % of control
- T/C [12]: 100 % of control
